Assay results taken from the supplement of paper PMC10307832.

Assays:
Test in all cases: relative viability (nuclei count vs DMSO), 5 days (fraction); higher = more cells survive
CX-5461 + Linsitinib = compound: Cc1cnc(CNC(=O)c2c(=O)c3ccc(N4CCCN(C)CC4)nc3n3c2sc2ccccc23)cn1 [CX-5461] + C[C@]1(O)C[C@@H](c2nc(-c3ccc4ccc(-c5ccccc5)nc4c3)c3c(N)nccn32)C1 [Linsitinib] (partner 1 µM)
Procedure, shortened: (§1)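 Each reported value is a median over duplicate plates. It expresses relative viability: treated-well nuclei count divided by vehicle-well nuclei count. Lung cancer cell lines in 1536-well plates were dosed by pin tool a day after seeding, alone with one drug or with a fixed anchor-drug dose plus five library-drug doses (not always all listed) in √10 steps, and nuclei were counted after 5 days.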

IMD-0354 + Crizotinib = compound: O=C(Nc1cc(C(F)(F)F)cc(C(F)(F)F)c1)c1cc(Cl)ccc1O [IMD-0354] + C[C@@H](Oc1cc(-c2cnn(C3CCNCC3)c2)cnc1N)c1c(Cl)ccc(F)c1Cl [Crizotinib] (partner 1 µM)
Procedure, shortened: as §1

IMD-0354 + Pemetrexed = compound: O=C(Nc1cc(C(F)(F)F)cc(C(F)(F)F)c1)c1cc(Cl)ccc1O [IMD-0354] + Nc1nc2[nH]cc(CCc3ccc(C(=O)N[C@@H](CCC(=O)O)C(=O)O)cc3)c2c(=O)[nH]1 [Pemetrexed] (partner 0.2 µM)
Procedure, shortened: as §1

IMD-0354 + Olaparib = compound: O=C(Nc1cc(C(F)(F)F)cc(C(F)(F)F)c1)c1cc(Cl)ccc1O [IMD-0354] + O=C(c1cc(Cc2n[nH]c(=O)c3ccccc23)ccc1F)N1CCN(C(=O)C2CC2)CC1 [Olaparib] (partner 8 µM)
Procedure, shortened: as §1

Cell Line	relative viability (CX-5461 + Linsitinib; first compound 0.01 µM)	relative viability (CX-5461 + Linsitinib; first compound 0.03162 µM)	relative viability (CX-5461 + Linsitinib; first compound 0.1 µM)	relative viability (CX-5461 + Linsitinib; first compound 0.3162 µM)	relative viability (CX-5461 + Linsitinib; first compound 1 µM)	relative viability (IMD-0354 + Crizotinib; first compound 0.04 µM)	relative viability (IMD-0354 + Crizotinib; first compound 0.1265 µM)	relative viability (IMD-0354 + Crizotinib; first compound 0.4 µM)	relative viability (IMD-0354 + Crizotinib; first compound 1.265 µM)	relative viability (IMD-0354 + Crizotinib; first compound 4 µM)	relative viability (IMD-0354 + Pemetrexed; first compound 0.04 µM)	relative viability (IMD-0354 + Pemetrexed; first compound 0.1265 µM)	relative viability (IMD-0354 + Pemetrexed; first compound 0.4 µM)	relative viability (IMD-0354 + Pemetrexed; first compound 1.265 µM)	relative viability (IMD-0354 + Pemetrexed; first compound 4 µM)	relative viability (IMD-0354 + Olaparib; first compound 0.04 µM)	relative viability (IMD-0354 + Olaparib; first compound 0.1265 µM)	relative viability (IMD-0354 + Olaparib; first compound 0.4 µM)	relative viability (IMD-0354 + Olaparib; first compound 1.265 µM)	relative viability (IMD-0354 + Olaparib; first compound 4 µM)
NCI-H838	1.1	1.05	1.08	0.847	0.859	0.912	0.776	0.424	0.561	0.279	0.25	0.229	0.161	0.191	0.167	0.778	0.73	0.426	0.253	0.302
NCI-H1755	0.983	1.05	0.968	0.993	1.01	0.925	0.965	0.46	0.31	0.17	0.458	0.407	0.387	0.375	0.291	0.782	0.907	0.707	0.585	0.23
HCC-78	0.566	0.548	0.502	0.437	0.398	0.317	0.323	0.251	0.37	0.189	0.972	0.885	0.637	0.96	0.902	0.814	0.744	0.649	1.04	0.291
IA-LM	0.644	0.863	0.852	0.688	0.415	0.948	0.974	0.51	0.0996	0.142						0.829	0.729	0.521	0.161	0.133
NCI-H322M	0.844	0.911	0.944		0.9	1.06	0.972	0.811	0.851	0.257	0.673	0.65	0.543	0.332	0.422	0.789	0.773	0.6	0.407	0.517
NCI-H3122	0.99	1.05	0.994	1.1	0.973	0.298	0.29	0.281	0.202	0.167	0.196	0.211	0.18	0.281	0.15	0.461	0.633	0.417	0.509	0.137
SK-LU-1	1.31	1.11	0.945	0.921	0.497	1.19	0.682	0.501	0.28	0.312	1.11	0.777	0.44	0.225	0.249	0.481	0.395	0.325	0.265	0.205
ChaGo-K-1						1.16	1.26	0.788	0.398	0.433	0.26	0.259	0.269	0.23	0.208	0.34	0.455	0.375	0.241	0.218
NCI-H522											1.35	0.895	0.91	0.62	0.397	0.517	0.716	0.625	0.46	0.333
NCI-H1299	0.942	0.977	1.04	1.01	0.831	0.943	1	0.518	0.294	0.166						0.767	0.969	0.505	0.193	0.16
NCI-H1650						0.921	0.793	0.578	0.19	0.205	0.364	0.352	0.309	0.259	0.12	0.827	0.82	0.463	0.325	0.145
NCI-H1648											0.653	0.693	0.401	0.455	0.277	0.528	0.484	0.565	0.677	0.225
NCI-H727	0.351	0.276	0.321	0.342	0.129	0.688	0.827	0.484	0.547	0.385						0.574	0.633	0.617	0.524	0.318
NCI-H2342											0.814	0.822	0.585	0.508	0.408	0.432	0.478	0.356	0.38	0.432
SW 900											0.544	0.519	0.329	0.182	0.196	0.928	0.948	0.66	0.212	0.258
NCI-H1395	1.06	1.15	1.06	0.612	0.583						0.986	0.81	0.616	0.334	0.323	0.449	0.464	0.466	0.361	0.337
NCI-H1793	1.05	0.913	0.941	0.913	0.752						0.971	0.795	0.446	0.191	0.257	0.856	0.797	0.399	0.213	0.251
A549	0.644	0.712	0.57	0.122	0.544	0.834	0.764	0.265	0.0905	0.121						0.365	0.555	0.108	0.0898	0.0605
NCI-H1563	1.19	1.14	0.894	0.995	0.664	0.904	0.774	0.822	0.484	0.44	0.815	0.9	0.669	0.5	0.231					
ABC-1	1.11	0.84		0.817	0.494	1.42	1.22	0.765	0.221	0.269						1.13	0.823	0.404		0.427
